Reference: patent US20250032425A1, “FIRST IN CLASS USE OF ESTROGEN RECEPTOR BETA AGONISTS IN TREATING ANGELMAN SYNDROME AND RELEVANT AUTISM SPECTRUM DISORDERS” (BROWN UNIVERSITY, priority 2023, published 2025)
“Also recorded” adds a separate entry of the source.

Columns and labels:
[1] = test system: iOPCs treated with siUBE3A; assay: EdU nuclear incorporation in iOPCs treated with siUBE3A; format: cell-based, human; settings: siUBE3A plus AC-186 at 10 μM for 24 hours
Method: The siRNAs targeting UBE3A (Thermo Fisher, #4390815 and #4390816), estrogen receptors (Thermo Scientific #145909 for ESRβ, #145539 for ESRα, and #4390824 for GPER), and negative control (Thermo Scientific, #AM4615) were obtained commercially. The 10-20 nM final concentration was used with Lipofectamine RNAiMAX transfection reagent (Thermo Scientific #13778075) and incubated for at least 48 hours before the treatments of therapeutic compounds or other reagents.
The EdU labeling kit from ThermoFisher Scientific (#C10637) was used to trace cell proliferation by incubating iOPCs with 2 μM EdU for three hours before fixation. Following EdU incorporation, cells were fixed in 4% paraformaldehyde, blocked with normal serum, and stained with primary antibodies, Rabbit anti-Ki67 and Mouse anti-UBE3A. These steps were conducted according to the manual of the labeling kit and also detailed immunofluorescence staining protocols described below, to ensure specific detection of the proliferation marker Ki67 and the ubiquitin-protein ligase UBE3A in the cells for subsequent imaging analysis.
For immunofluorescence with fixed cells in vitro, cultured cells were fixed in 4% PFA for 15 min at 37° C. followed by 0.25% TritonX-100 in PBS for 10 min at RT. Cells were blocked with 2% normal goat/donkey serum in PBS for 1 hour at RT. […]

[2] = test system: rat primary OPCs deficient in UBE3A; assay: Ki67 immunoblotting in primary rat OPCs with Ube3A siRNA knockdown; format: cell-based; settings: siUBE3A; 10 μM over 24 hours; vs siUBE3A alone
Method: OPC purification followed our protocol previously described in Mei et al., 2016 (Identification of the Kappa-Opioid Receptor as a Therapeutic Target for Oligodendrocyte Remyelination. J Neurosci 36, 7925-7935), isolating cells from day 7 postnatal rat cortical hemispheres. The process began with mechanical dissection and papain digestion at 37° C. for 75 minutes, with occasional shaking. After trituration, cells were processed through immunopanning with 0.2% BSA, involving 30 minutes of negative and 45 minutes of positive selection. Selection plates were pre-treated with secondary antibodies and incubated with primary antibodies Ran-2, Gal-C (for negative) and O4 (for positive selection). Trypsin dissociated OPCs from the selection dish, and the reaction was stopped with 30% FBS, achieving >95% purity. OPCs were then plated on poly-1-lysine-coated coverslips in a nutrient-rich medium and incubated at 37° C. and 5% CO2 overnight. Post PDGF-AA removal, OPCs received either compound or control treatments for 2 days, with vehicle controls adjusted to match treatment concentrations.
The siRNAs targeting UBE3A (Thermo Fisher, #4390815 and #4390816), estrogen receptors (Thermo Scientific #145909 for ESRβ, #145539 for ESRα, and #4390824 for GPER), and negative control (Thermo Scientific, #AM4615) were obtained commercially. […]

Compound: Oc1ccc(C2(c3ccccc3F)CCC(F)(F)CC2)cc1 [AC-186]
- EdU staining [1]: increased EdU staining
- OPC proliferation (Ki67 expression) [2]: rescues impaired proliferation; also recorded: rescued; also recorded: reversed; also recorded: rescue of OPC proliferation; also recorded: increased Ki67 expression
